Drawing on patent US20050197350A1, “Novel quinoline, tetrahydroquinazoline, and pyrimidine derivatives and methods of treatment related to the use thereof” (TAISHO PHARMACEUTICAL CO., LTD., priority 2003, published 2005), this text covers IC50 for 16 compounds.

Each structure is given as a SMILES string. Where a name gives a salt, the structure may show the parent alone.

For one assay, the target named is MCH receptor (Homo sapiens, UniProt Q99705). Put plainly: High throughput functional screening FLIPR/FDSS6000 (intracellular Ca2+ evoked by MCH). It is filed as cell-based. Particulars: FLIPR/FDSS, antagonist activity vs 50 nM MCH; class by percent of control at 10^−7 M or IC50; read-out: class. In outline:
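For antagonist testing, compound-treated cells (30 min, 37 °C) were stimulated with 50 nM MCH and intracellular Ca2+ followed by Fluo4 fluorescence on FLIPR/FDSS6000. Receptor was a constitutively active, non-endogenous MCH receptor; dye loading 4 μM Fluo4-AM, 1 h, 37 °C.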
Turning to `COc1cccc(S(=O)(=O)c2ncccc2C(=O)N[C@H]2CC[C@@H](Nc3nc(C)cc(N(C)C)n3)CC2)c1` [Example 3379, N-(cis-4-{[4-(dimethylamino)-6-methylpyrimidin-2-yl]amino}cyclohexyl)-2-[(3-methoxyphenyl)sulfonyl]-nicotinamide], the IC50 was > 200 nM.

For `Cc1cc(N(C)C)nc(N[C@H]2CC[C@@H](NC(=O)N(C)C(C)(C)c3cc(C(F)(F)F)cc(C(F)(F)F)c3)CC2)n1` [Example 3268, N-{1-[3,5-bis(trifluoromethyl)phenyl]-1-methylethyl}-N′-(cis-4-{[4-(dimethylamino)-6-methylpyrimidin-2-yl]amino}cyclohexyl)-N-methylurea], the IC50 is > 200 nM.

As for `Cc1cnc(N[C@H]2CC[C@@H](NC(=O)Nc3cc(Cl)cc(Cl)c3)CC2)nc1N(C)C` [Example 3339, N-(3,5-dichlorophenyl)-N′-(cis-4-{[4-(dimethylamino)-5-methylpyrimidin-2-yl]amino}cyclohexyl)urea], the IC50 was 50 to 200 nM.

`Cc1cnc(N[C@H]2CC[C@@H](NC(=O)c3cccnc3S(=O)(=O)c3ccccc3Cl)CC2)nc1N(C)C` [Example 3284, 2-[(2-chlorophenyl)sulfonyl]-N-(cis-4-{[4-(dimethylamino)-5-methylpyrimidin-2-yl]amino}cyclohexyl)nicotinamide]: the IC50 lay in the range of 50 to 200 nM.

For `COc1ccc(S(=O)(=O)c2ncccc2C(=O)N[C@H]2CC[C@@H](Nc3ncc(C)c(N(C)C)n3)CC2)cc1` [Example 3286, N-(cis-4-{[4-(dimethylamino)-5-methylpyrimidin-2-yl]amino}cyclohexyl)-2-[(4-methoxyphenyl)sulfonyl]-nicotinamide], the IC50 was > 200 nM.

On to `Cc1cc(N(C)C)nc(N[C@H]2CC[C@@H](C(=O)NC(C)(C)c3cc(C(F)(F)F)cc(C(F)(F)F)c3)CC2)n1` [Example 3275, cis-N-{1-[3,5-bis(trifluoromethyl)phenyl]-1-methylethyl}-4-{[4-(dimethylamino)-6-methylpyrimidin-2-yl]amino}cyclohexanecarboxamide], for which the IC50 was > 200 nM.

The assay is the same for the next values; noted with them: FLIPR/FDSS, antagonist activity vs 50 nM MCH; class by percent of control at 10^−7 M or IC50; table after the classification; read-out: class.
As to `CCN(CC(=O)N[C@H]1CC[C@@H](Nc2ccc3ccccc3n2)CC1)c1ccccc1` [Example 3151, C-(Ethyl-phenyl-amino)-N-[cis-4-(quinolin-2-ylamino)-cyclohexyl]-acetamide dihydrochloride], the IC50 was < 50 nM.

Turning to `Cc1cc(N(C)C)nc(N[C@H]2CC[C@@H](NC(=O)c3cccnc3Oc3ccccc3)CC2)n1` [Example 3126, N-[cis-4-(4-Dimethylamino-6-methyl-pyrimidin-2-ylamino)-cyclohexyl]-2-phenoxy-nicotinamide hydrochloride], the IC50 is < 50 nM.

Turning to `Cc1cc(C)nc(N[C@H]2CC[C@@H](NC(=O)c3cccnc3Oc3ccccc3)CC2)n1` [Example 3143, N-[cis-4-(4,6-Dimethyl-pyrimidin-2-ylamino)-cyclohexyl]-2-phenoxy-nicotinamide hydrochloride], the IC50 was > 200 nM.

Turning to `Cc1cc(N[C@H]2CC[C@@H](NC(=O)c3cc(Cl)ccn3)CC2)nc2ccccc12` [Example 3184, 4-Chloro-pyridine-2-carboxylic acid [cis-4-(4-methyl-quinolin-2-ylamino)-cyclohexyl]-amide hydrochloride], the IC50 is 50 to 200 nM.

Turning to `O=C(N[C@H]1CC[C@@H](Nc2ccc3ccccc3n2)CC1)c1ccc2nonc2c1` [Example 3041, Benzo[2,1,3]oxadiazole-5-carboxylic acid-[cis-4-(quinolin-2-ylamino)-cyclohexyl]-amide hydrochloride], the IC50 was < 50 nM.

On to `Cc1cnc(N[C@H]2CC[C@@H](NC(=O)Cc3ccc(F)c(F)c3)CC2)nc1N(C)C` [Example 3391, 2-(3,4-Difluoro-phenyl)-N-[cis-4-(4-dimethylamino-5-methyl-pyrimidin-2-ylamino)-cyclohexyl]-acetamide hydrochloride], for which the IC50 is < 50 nM.

As for `CN(C)c1cc(N(C)C)nc(N[C@H]2CC[C@@H](NC(=O)c3ccc(F)c(F)c3)CC2)n1` [Example 3232, N-[cis-4-(4,6-Bis-dimethylamino-pyrimidin-2-ylamino)-cyclohexyl]-3,4-difluoro-benzamide hydrochloride], the IC50 fell in the range of 50 to 200 nM.

`O=C(N[C@H]1CC[C@@H](Nc2ccc3ccccc3n2)CC1)c1cccc(O)c1` [Example 3146, 3-Hydroxy-N-[cis-4-(quinolin-2-ylamino)-cyclohexyl]-benzamide hydrochloride]: the IC50 was < 50 nM.

As for `O=C(N[C@H]1CC[C@@H](Nc2ccc3ccccc3n2)CC1)C1c2ccccc2Oc2ccccc21` [Example 3043, 9H-Xanthene-9-carboxylic acid [cis-4-(quinolin-2-ylamino)-cyclohexyl]-amide hydrochloride], the IC50 was < 50 nM.

Take `CN(C)c1ccnc(N[C@H]2CC[C@@H](NC(=O)c3cccnc3Oc3ccccc3)CC2)n1` [Example 3129, N-[cis-4-(4-Dimethylamino-pyrimidin-2-ylamino)-cyclohexyl]-2-phenoxy-nicotinamide hydrochloride]: the IC50 lay in the range of 50 to 200 nM.
